Results from patent US20180078609A1, “METHODS AND COMPOSITIONS FOR TREATING ALZHEIMER'S DISEASE AND OTHER MEMORY-ASSOCIATED DISORDERS AND CONDITIONS” (Massachusetts Institute of Technology, priority 2016, published 2018).

Key:
early AD mice = test: Contextual fear conditioning memory recall (freezing) after in vivo optical LTP; set-up: species or system mouse
Source text: Two distinct contexts were employed [Ryan, T. J., et al. (2015) Science 348, 1007-1013]. Context A was 29×25×22 cm chambers with grid floors, opaque triangular ceilings, red lighting, and scented with 1% acetic acid. Four mice were run simultaneously in four identical context A chambers. Context B consisted of four 30×25×33 cm chambers with perspex floors, transparent square ceilings, bright white lighting, and scented with 0.25% benzaldehyde. All mice were conditioned in context A (two 0.60 mA shocks of 2 s duration in 5 min), and tested (3 min) in contexts A and B 1 day later. […] Floors of chambers were cleaned with quatricide before and between runs. Mice were transported to and from the experimental room in their home cages using a wheeled cart. The cart and cages remained in an anteroom to the experimental rooms during all behavioral experiments. For engram labeling, mice were kept on regular food without DOX for 24 h before training. When training was complete, mice were switched back to food containing 40 mg kg^−1 DOX.
(§1) One day after CFC training and engram labelling (DG plus PP terminals) in control and early AD groups, mice were placed in an open field arena (52×26 cm) after patch cords were fitted to the fiber implants. […]

DG engram cells [1] = test: Dendritic spine density analysis of DG engram cells after in vivo optical LTP; set-up: species or system mouse; conditions: early AD mice treated with anisomycin after LTP induction
Experimental: Engram cells were labelled using c-Fos-tTA-driven synthesis of ChR2-eYFP or eYFP alone. The eYFP signal was amplified using immunohistochemistry procedures, after which fluorescence z-stacks were taken by confocal microscopy (Zeiss LSM700) using a×40 objective. Maximum intensity projections were generated using ZEN Black software (Zeiss). Four mice per experimental group were analyzed for dendritic spines. For each mouse, 30-40 dendritic fragments of 10-μm length were quantified (n=120-160 fragments per group). To measure spine density of DG engram cells with a focus on entorhinal cortical inputs, distal dendritic fragments in the middle-to-outer molecular layer (ML) were selected. For CA3 and CA1 engram cells, apical and basal dendritic fragments were selected. To compute spine density, the number of spines counted on each fragment was normalized by the cylindrical approximation of the surface of the specific fragment. Experiments were conducted blind to experimental group. Researcher 1 imaged dendritic fragments and randomized images, while researcher 2 performed manual spine counting.
as §1

DG engram cells [2] = test: DTR-mediated ablation of engram cells, DTR-eYFP cell counts; type: in vivo, mouse; conditions: DTR-expressing DG engram cells after DT administration
Experimental: Mice were dispatched using 750-1,000 mg kg^−1 avertin and perfused transcardially with PBS, followed by 4% paraformaldehyde (PFA). Brains were extracted and incubated in 4% PFA at room temperature overnight. Brains were transferred to PBS and 50 μm coronal slices were prepared using a vibratome. For immunostaining [Ryan, T. J., et al. (2015) Science 348, 1007-1013], each slice was placed in PBS+0.2% Triton X-100 (PBS-T), with 5% normal goat serum for 1 h and then incubated with primary antibody at 4° C. for 24 h. Slices then underwent three wash steps for 10 min each in PBS-T, followed by 1 h incubation with secondary antibody. […]
(§2) To characterize the expression pattern of ChR2-eYFP, DTR-eYFP, eYFP alone and oChIEF-tdTomato in control and AD mice, the number of eYFP^+/tdTomato^+ neurons were counted from 4-5 coronal slices per mouse (n=3-5 mice per group). Coronal slices centered on coordinates covered by optic fiber implants were taken for DG quantification and sagittal slices centered on injection coordinates were taken for MEC and LEC. Fluorescence images were acquired using a Zeiss Axiolmager.Z1/ApoTome microscope (×20). […] The number of eYFP^+/tdTomato^+ cells per section was calculated by applying a threshold above background fluorescence. Data were analyzed using Microsoft Excel with the Statplus plug-in. […]

DG mossy cells = test: Calretinin (CR+) staining of mossy cell axons after engram cell ablation; type: in vivo, mouse; conditions: after DT administration
Experimental: Mice were dispatched using 750-1,000 mg kg^−1 avertin and perfused transcardially with PBS, followed by 4% paraformaldehyde (PFA). Brains were extracted and incubated in 4% PFA at room temperature overnight. Brains were transferred to PBS and 50 μm coronal slices were prepared using a vibratome. For immunostaining [Ryan, T. J., et al. (2015) Science 348, 1007-1013], each slice was placed in PBS+0.2% Triton X-100 (PBS-T), with 5% normal goat serum for 1 h and then incubated with primary antibody at 4° C. for 24 h. Slices then underwent three wash steps for 10 min each in PBS-T, followed by 1 h incubation with secondary antibody. After three more wash steps of 10 min each in PBS-T, slices were mounted on microscope slides. All analyses were performed blind to the experimental conditions. Antibodies used for staining were as follows: to stain for ChR2-eYFP, DTR-eYFP or eYFP alone, slices were incubated with primary chicken anti-GFP (1:1,000, Life Technologies) and visualized using anti-chicken Alexa-488 (1:200). For plaques, slices were stained using primary mouse anti-β-amyloid (1:1,000; Sigma-Aldrich) and secondary anti-mouse Alexa-488 (1:500). c-Fos was stained with rabbit anti-c-Fos (1:500, Calbiochem) and anti-rabbit Alexa-568 (1:300). Adult newborn neurons were stained with guinea pig anti-DCX (1:1,000; Millipore) and anti-guinea-pig Alexa-555 (1:500). […]

DG = test: Kainic acid seizure-induced ChR2-eYFP labelling; type: in vivo, mouse; conditions: 1 day off DOX; 15 mg kg−1 i.p. kainic acid
Experimental: For seizure experiments [Liu, X., et al. (2012) Nature 484, 381-385], mice were taken off DOX for 1 day and injected intraperitoneally with 15 mg kg^−1 kainic acid (KA). Mice were returned to DOX food 6 h after KA treatment and perfused the next day for immunohistochemistry procedures.
as §2, with “plug-in. A similar approach was applied for quantifying amyloid-3 plaques, c-Fos^+ neurons and adult newborn (DCX^+) neurons. Total engram cell reactivation was calculated as ((c-Fos^+ eYFP^+)/(total DAPI^+))×100. Chance overlap was calculated as ((c-Fos^+/total DAPI^+)×(eYFP^+/total DAPI^+))×100. Percentage of adult newborn neurons expressing neuronal markers was calculated as ((NeuN^+ DCX^+)/(total DCX^+))×100.” for “plug-in.”

With COc1ccc(C[C@H]2NC[C@H](O)[C@H]2OC(C)=O)cc1 [anisomycin] as the compound, how does the “Memory recall freezing vs saline-treated AD mice” value (early AD mice; AD+100 Hz+Aniso, 2 days after LTP induction followed by drug administration, 75 mg kg−1 i.p. twice) read?
The value was “less freezing”.

And the “Average dendritic spine density vs saline-treated AD mice” value (DG engram cells [1])?
Its value is “decreased”.

Which “Memory recall freezing vs saline-treated mice” value (early AD mice; AD rescue+DTR+DT, after optical LTP spine restoration) does the source give for diphtheria toxin here?
Its value is “less freezing”.

And the “Ablation of DG engram cells” value (DG engram cells [2])?
The value was “efficiently ablated DG engram cells”.

What about the “Effect on nearby DG mossy cells” value (DG mossy cells) of the same compound?
Its value is “intact”.

For C=C(C)[C@H]1CN[C@H](C(=O)O)[C@H]1CC(=O)O [kainic acid], which “ChR2-eYFP labelling after seizures” value (DG) is on record?
The value was “efficient labelling throughout the DG”.
